Tests used:
interferon (α) (IFN-α) = experiment: Cytokine induction in human cells: IFN-α secreted by PBMC into culture media (ELISA); assay type: cell-based; set-up: key to Maximal Response (pg/mL) IFN: If any negative values result from background subtraction, the reading is reported as “*”, and is noted as not reliably detectable; conditions: for Maximal Response IFN / minimal effective concentration / Minimum Effective Concentration IFN: human PBMC; for Maximal Response IFN / Minimum Effective Concentration IFN: median where tested in more than one experiment; for minimal effective concentration: lowest tested concentration inducing IFN-α over usually 20 pg/mL, median where more than one experiment, read-out: Minimum Effective Concentration (μM) IFN; for Maximal Response (pg/mL) IFN: maximal response in dose response curve, median
Summary of the method: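 IFN-α secreted by density-gradient-isolated PBMC (final 2×10^6 cells/mL) was quantified by ELISA after 18–24 h compound exposure at 37 °C, typically 30-0.014 μM in 3-fold steps with ≤1% DMSO. Readings corrected for background and reference-compound variability; lowest concentration above usually 20 pg/mL reported, plus maximal response (pg/mL).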

[1] = test system: tumor necrosis factor (α) (TNF-α); experiment: Cytokine induction in human cells: TNF-α secreted by PBMC into culture media (ORIGEN M-Series immunoassay); assay type: cell-based; set-up: key to Maximal Response (pg/mL) TNF / Maximal Response TNF: If any negative values result from background subtraction, the reading is reported as “*”, and is noted as not reliably detectable; conditions: for Maximal Response TNF / minimal effective concentration / Minimum Effective Concentration TNF: human PBMC; for Maximal Response TNF / Maximal Response (pg/mL) TNF: median; for minimal effective concentration: lowest tested concentration inducing TNF-α over usually 40 pg/mL, median where more than one experiment, read-out: Minimum Effective Concentration (μM) TNF; for Maximal Response (pg/mL) TNF: maximal response in dose response curve; for Minimum Effective Concentration TNF: median where tested in more than one experiment
Summary of the method: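 Secreted TNF-α (pg/mL) was quantified by ORIGEN M-Series immunoassay after 18 to 24 hours culture at 37° C of human PBMC (2×10^6 cells/mL final) with test compound (usually 30-0.014 μM, 3-fold series, DMSO ≤1%). Values were corrected for DMSO or experimental background and a reference-compound ratio, giving a minimum effective concentration.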

[2] = Table 12, * = below the experimental background of 40 pg/mL
[3] = Table 10, * = below experimental background level
[4] = Table 11, * = TNF below experimental background of 40 pg/mL
[5] = Table 7, background-subtracted, reference-adjusted

Compound	minimal effective concentration (interferon (α) (IFN-α); Table 10) [µM]	Maximal Response (pg/mL) IFN (interferon (α) (IFN-α); [3])	minimal effective concentration ([1]; Table 10) [µM]	Maximal Response (pg/mL) TNF [1, 3]	Maximal Response IFN (interferon (α) (IFN-α); Table 11) [pg/mL]	Maximal Response TNF [1, 4]	also measured
CCOCc1nc2c(N)nc3cccnc3c2n1CC(C)(C)NC(=O)C1CCCCC1 [Analog 129, N-[2-(4-amino-2-ethoxymethyl-1H-imidazo[4,5-c][1,5]naphthyridin-1-yl)-1,1-dimethylethyl]cyclohexanecarboxamide]							Maximal Response IFN (interferon (α) (IFN-α); Table 12): 1647 pg/mL; Maximal Response TNF [1, 2]: 8691 pg/mL
COCCc1nc2c(N)nc3cc(-c4ccccc4)ccc3c2n1CC(C)(C)O [Analog 23]	0.014	260 pg/mL	0.014	2296 pg/mL			
Cc1ccc(C)c(S(=O)(=O)NCCCCn2c(CCO)nc3c(N)nc4ccccc4c32)c1 [Example 36]					3316	*	Minimum Effective Concentration IFN (interferon (α) (IFN-α); Table 11): 10 µM; Minimum Effective Concentration TNF ([1]; Table 11): >30 µM
CCCCNC(=O)NCCCn1c(CCOC)nc2c(N)nc3ccccc3c21 [Analog 98]					5915	6169 pg/mL	Minimum Effective Concentration IFN (interferon (α) (IFN-α); Table 11): 0.014 µM; Minimum Effective Concentration TNF ([1]; Table 11): 0.04 µM
CC(C)(CNS(C)(=O)=O)Cn1c(CCO)nc2c(N)nc3ccccc3c21 [Example 131]					8361	*	Minimum Effective Concentration IFN (interferon (α) (IFN-α); Table 11): 0.37 µM; Minimum Effective Concentration TNF ([1]; Table 11): >30 µM
CCc1nc2c(N)nc3ccccc3c2n1CC(C)(C)NS(C)(=O)=O [Analog 2, N-[2-(4-Amino-2-ethyl-1H-imidazo[4,5-c]quinolin-1-yl)-1,1-dimethylethyl]methanesulfonamide]					1096	9675 pg/mL	Maximal Response (pg/mL) IFN (interferon (α) (IFN-α); [5]): 831 pg/mL; Maximal Response (pg/mL) TNF [1, 5]: 3670 pg/mL
Cc1nc2c(N)nc3cccnc3c2n1CC(C)(C)F [Analog 131, 1-(2-fluoro-2-methylpropyl)-2-methyl-1H-imidazo[4,5-c][1,5]naphthyridin-4-amine]							Maximal Response IFN (interferon (α) (IFN-α); Table 12): 2120 pg/mL; Maximal Response TNF [1, 2]: 1679 pg/mL
COCc1nc2c(N)nc3cc(-c4cccnc4)ccc3c2n1CC(C)(C)O [Analog 11]	0.37	829 pg/mL	1.11	3445 pg/mL			
CCCc1nc2c(N)nc3cc(-c4cccnc4)ccc3c2n1CCCCNC(=O)C(C)C [Analog 38]	0.12	1610 pg/mL	0.37	960 pg/mL			
COCCc1nc2c(N)nc3ccccc3c2n1CCCCN [Analog 114]					127231	724 pg/mL	Minimum Effective Concentration IFN (interferon (α) (IFN-α); Table 11): 0.04 µM; Minimum Effective Concentration TNF ([1]; Table 11): 0.37 µM
CCCc1nc2c(N)nc3cccnc3c2n1CC(C)(C)O [Analog 128, 1-(4-amino-2-propyl-1H-imidazo[4,5-c][1,5]naphthyridin-1-yl)-2-methylpropan-2-ol]							Maximal Response IFN (interferon (α) (IFN-α); Table 12): 2484 pg/mL; Maximal Response TNF [1, 2]: 5526 pg/mL
COCCc1nc2c(N)nc3ccccc3c2n1CC(C)(C)NS(C)(=O)=O [Analog 5, N-{2-[4-Amino-2-(2-methoxyethyl)-1H-imidazo[4,5-c]quinolin-1-yl]-1,1-dimethylethyl}methanesulfonamide]					1308	13908 pg/mL	Maximal Response (pg/mL) IFN (interferon (α) (IFN-α); [5]): 825 pg/mL; Maximal Response (pg/mL) TNF [1, 5]: 12518 pg/mL
CS(=O)(=O)NCCn1c(CO)nc2c(N)nc3cccnc3c21 [Example 146, N-[2-(4-Amino-2-hydroxymethyl-1H-imidazo[4,5-c][1,5]naphthyridin-1-yl)ethyl]methanesulfonamide]							Maximal Response IFN (interferon (α) (IFN-α); Table 12): 1520 pg/mL; Maximal Response TNF [1, 2]: *
Nc1nc2cc(-c3ccccc3)ccc2c2c1nc(CCO)n2CCCN1CCCC1=O [Example 156]	>30	*	>30	*			
CCCc1nc2c(N)nc3cc(-c4cccnc4)ccc3c2n1CC1CCN(C(=O)C(C)C)CC1 [Analog 20]	0.12	1157 pg/mL	0.37	1054 pg/mL			
